The values below come from patent publication US20140073634A1 (Institute For Applied Cancer Science/The University of …, priority 2012, published 2014).

In one series the test system is TMD8 cells. As to the kind of experiment: Diffuse large B-cell lymphoma (DLBCL) assay, viable cells by Guava ViaCount. Particulars: varying concentrations, 7 days. It is filed as cell-based. The method, then:
Diffuse Large B-Cell Lymphoma (DLBCL) Assay
Equal number of TMD8 cells were plated and treated with varying concentrations of the compound of Example 7 for 7 days. Percent of viable cells was determined using Guava ViaCount reagents (EMD Millipore cat #4000-0040) that contains proprietary dyes that enable the determination of the number of live and dead cells in a sample (FIG. 1).

Series [1] deals with OCI-AML3 cells constitutively expressing luciferase. As to the kind of experiment: OCI-AML3 leukemia model in NSG mice (IVIS imaging, survival). It is filed as in vivo, NSG nude mice. The method, then: (§1) The OCI-AML3 cell line was treated with various concentrations of the compound of Example 7 for 7 days and the percent of viable cells normalized to control cells treated with DMSO (FIG. 8). CD45+ primary AML cells from an AML patient or CD45+ normal bone marrow cells from a healthy volunteer were treated with the compound of Example 7 for 4 days and the number of viable cells and percentage of apoptotic (annexin V) were determined (FIGS. 9a and 9b). […] OCI-AML3 cells constitutively expressing luciferase were tail vein injected in NSG nude mice. 17 days after cell injection, luciferin was injected into animals and luciferase signal was measured using an IVIS imaging system to determine tumor burden and for randomization of subjects into study groups. On day 18, animals began receiving daily oral doses of vehicle or 60 mpk of the compound of Example 7 were started and continued throughout the study. On day 28, imaging was performed again to determine tumor burden (FIG. 10).

A further series concerns Gli56 cells. As to the kind of experiment: Glioblastoma cellular assay. The format is cell-based. Conditions: Gli56, various concentrations. From the text:
(§2) NB-1, Gli56, and D423 cell lines are deleted for ENO-1 (GLI56 and D423) or PGD, which renders them with reduced glycolytic capacity (Muller, F. et al., Nature, 2012, 488, 337-42).

The next series relates to OCI-AML3 cell line. As to the kind of experiment: Acute myeloid leukemia cell line viability. It is filed as cell-based, human. Particulars: OCI-AML3, various concentrations, 7 days. The procedure: as §1
Another series concerns H460 xenografts. The series can be described thus: H460 non-small cell lung cancer xenograft. It is filed as in vivo, CD-1 nude mice. The method, then: Non-Small Cell Lung Cancer: H460 cells were implanted subcutaneously in CD-1 nude mice and treated with the compound of Example 7 (40 mpk qdx 14) delivered by oral gavage for 14 days. Animals were randomized into study groups and the study initiated when the average tumor volume was 400 mm^3. During treatment, tumor volume was measured three times per week to determine tumor growth over the course of the study (FIG. 5). Nine tumor bearing mice were included in each group. On day 15, 3 hours prior to take down, hypoxyprobe (Hypoxyprobe, Inc. cat #HP3) was injected into mice. Tumor sections were stained (dark areas) for the level of hypoxia utilizing an anti-hypoxyprobe antibody and standard IHC methods (FIG. 6). The same tumors were stained for the expression of HIF regulated gene carbonic anhydrase IX (CA9) using standard IHC methods (FIG. 7).

Another series deals with NB-1 cells. As to the kind of experiment: Neuroblastoma cellular assay. It is filed as cell-based. Particulars: NB-1, various concentrations.
Source text: as §2

In a further series the test system is D423 cells. As to the kind of experiment: Cellular assay in ENO-1 deleted D423 cells. The format is cell-based. Particulars: D423, various concentrations.
Source text: as §2

Series [2] deals with CD45+ normal bone marrow cells from a healthy volunteer. As to the kind of experiment: Normal bone marrow cells, viable cells and annexin V. The format is cell-based, human. Conditions: 4 days. The method, then:
as §1

A further series deals with HN5 xenograft. The series can be described thus: HN5 head and neck xenograft with fractionated irradiation. Particulars: 60 mg/kg daily oral and/or 4 Gy irradiation for 5 days. The format is in vivo, CD-1 nude mice. The method, then: HN5 head and neck cells were injected intramuscularly into CD-1 nude mice. Upon tumors reaching 8.5 mm in diameter, animals were enrolled in the study and received either vehicle or the compound of Example 7 (days 0-5) with or without a 4 Gy dose 6 hours after the compound of Example 7 on days 1-5 of the study (FIG. 12). Tumor size was measured every other day to determine the rate of growth (FIG. 13).

The test system of series [3] is CD45+ primary AML cells from an AML patient. The series can be described thus: Primary AML cells, viable cells and annexin V. The format is cell-based, human. Particulars: 4 days. The procedure:
as §1

A further series concerns 293T-HRE-GFP-luc cells. The series can be described thus: Cell-based reporter assay for IC50 determinations (HRE-luciferase, hypoxia). Particulars: 6 hrs hypoxia (1% O2), luminescence. In outline: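 293T-HRE-GFP-luc cells were pre-incubated with serially diluted compounds for 30 min under normoxia, then held 6 hrs in hypoxia (1% O2, 37° C). HRE-driven luciferase read by Steadylite Plus luminescence; IC50 from four-parameter logistic fit.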
For orientation: A reporter such as luciferase makes a cellular process visible.

The test system of another series is NB-1 xenografts. As to the kind of experiment: NB-1 xenograft model. It is filed as in vivo, CD-1 nude mice. Particulars: 40 mg/kg daily oral. From the text: To establish activity and provide in vivo proof of concept, NB-1 cells were implanted into CD-1 nude mice and treated with vehicle or 40 mpk of the compound of Example 7 po daily hen tumors reached 400-500 mm^3. Tumor size was measure 3×/week using caliper measurements (FIG. 4).

The term IC50 denotes the point on the concentration scale where inhibition reaches its midpoint. On to `CN1CCN(c2cc(Cn3cc(-c4nc(-c5ccc(OC(F)(F)F)cc5)no4)ccc3=O)ccn2)CC1` [Example 7, 1-methyl-4-(4-((2-oxo-5-(3-(4-(trifluoromethoxy)phenyl)-1,2,4-oxadiazol-5-yl)pyridin-1(2H)-yl)methyl)pyridin-1-ium-2-yl)piperazin-1-ium bis-trifluoroacetate], for which the “Percent of viable cells” value in the series with TMD8 cells is listed as “respond robustly”. Further, in [1] (60 mg/kg daily oral, NSG mice), the “disease burden (IVIS imaging)” value was “reduces disease burden”. For the same compound, the survival entry in [1] (60 mpk daily oral, relative to vehicle) is listed as “significantly increased their survival”. Further, in the series on Gli56 cells, the cell death result is listed as “cell death readily apparent” and the cell number result was “significantly reduced”. Besides, the “percent of viable cells normalized to DMSO control” value in the series with OCI-AML3 cell line is “reduced number of viable cells”. Moreover, the tumor growth result in the series with H460 xenografts (40 mpk qdx14 oral gavage) is given as “inhibited the growth of the H460 xenografts”. Further, in the series on H460 xenografts (40 mpk qdx14 oral, day 15), the “carbonic anhydrase IX (CA9) protein expression in tumor (IHC)” value is “elimination of hypoxia and CA9 protein expression”; the “level of hypoxia in tumor (hypoxyprobe IHC)” value is given as “elimination of hypoxia”. Further, in the series on NB-1 cells, the cell death result is given as “cell death readily apparent” and the cell number result is on record as “significantly reduced”. In the series with D423 cells, the cell number result was “significantly reduced”. For the same compound, the “response (viable cells, annexin V)” value in series [2] is “minimal response”. Also, the “tumor diameter, combination with irradiation” value in the series with HN5 xenograft is recorded as “enhance fractionated irradidation”. In [3], the “number of viable cells” value is on record as “significant decrease” and the “percentage of apoptotic (annexin V) cells” value was “significant increase”. Besides, in the series with 293T-HRE-GFP-luc cells, the IC50 was < 100 nM. The tumor growth result with NB-1 xenografts is “reduces the tumor growth”.
